Measurements as given in BindingDB's records for PubMed 8169832 (University of Pennsylvania, 1994).

target: 5-hydroxytryptamine receptor 6 (Mus musculus, UniProt Q9R1C8)
Sequence (Q9R1C8 whole entry): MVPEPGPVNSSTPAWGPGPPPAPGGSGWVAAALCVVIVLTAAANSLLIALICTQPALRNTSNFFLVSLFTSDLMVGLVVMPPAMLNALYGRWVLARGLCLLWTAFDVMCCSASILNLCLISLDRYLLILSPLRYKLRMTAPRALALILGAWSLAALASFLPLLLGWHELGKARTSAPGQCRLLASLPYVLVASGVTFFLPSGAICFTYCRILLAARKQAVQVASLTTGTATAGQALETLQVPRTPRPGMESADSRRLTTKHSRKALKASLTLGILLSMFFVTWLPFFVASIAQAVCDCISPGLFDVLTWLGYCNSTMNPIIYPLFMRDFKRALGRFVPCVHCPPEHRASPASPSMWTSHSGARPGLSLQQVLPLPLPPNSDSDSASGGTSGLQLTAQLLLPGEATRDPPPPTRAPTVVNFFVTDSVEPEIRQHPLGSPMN

Which Ki does the source give for `Cc1[nH]c2ccc(O)cc2c1CCN` here?
Its Ki is 0.398 µM.

With `O=C(c1ccc(F)cc1)C1CCN(CCn2c(=O)[nH]c3ccccc3c2=O)CC1` [3-(2-{4-[(4-fluorophenyl)carbonyl]piperidin-1-yl}ethyl)-1,2,3,4-tetrahydroquinazoline-2,4-dione] as the compound, how does the Ki read?
Its Ki is 1 µM.

For `Cn1cc(CCN)c2cc(O)ccc21` [5-HT,omega-N-Me], which Ki is on record?
Its Ki is 2 µM.

How did the Ki turn out when `CN1CCN(C2=c3ccccc3=Nc3ccc(Cl)cc3N2)CC1` [6-chloro-10-(4-methylpiperazin-1-yl)-2,9-diazatricyclo[9.4.0.0^{3,8}]pentadeca-1,3(8),4,6,10,12,14-heptaene] was run?
Its Ki is 0.0316 µM.

For `CN1CCN2c3ccccc3Cc3ccccc3[C@H]2C1` [MIANSERIN (+)], which Ki is on record?
Its Ki is 0.0199 µM.

For `CN1CCc2cc(Cl)c(O)cc2[C@@H](c2ccccc2)C1` [SCH 23390,R(+)], which Ki is on record?
The Ki was 2.51 µM.

How did the Ki turn out when `NCCc1c[nH]c2ccc(O)cc12` [[3H]-5-HT] was run?
Its Ki is 0.0398 µM.

For `CSc1ccc2c(c1)C(N1CCN(C)CC1)Cc1ccccc1S2` (stereo not drawn) [methanesulfonic acid;1-methyl-4-(3-methylsulfanyl-5,6-dihydrobenzo[b][1]benzothiepin-5-yl)piperazine], which Ki is on record?
Its Ki is 0.00199 µM.
